One assay deals with T1, His6-TEV-PPARγ-(234-505) (Homo sapiens, UniProt P37231).
T1 construct: The His6-TEV-PPARγ-(234-505) protein for assay was expressed and purified; TEV cleavage site (N); made in house
T1 sequence (P37231 234-505): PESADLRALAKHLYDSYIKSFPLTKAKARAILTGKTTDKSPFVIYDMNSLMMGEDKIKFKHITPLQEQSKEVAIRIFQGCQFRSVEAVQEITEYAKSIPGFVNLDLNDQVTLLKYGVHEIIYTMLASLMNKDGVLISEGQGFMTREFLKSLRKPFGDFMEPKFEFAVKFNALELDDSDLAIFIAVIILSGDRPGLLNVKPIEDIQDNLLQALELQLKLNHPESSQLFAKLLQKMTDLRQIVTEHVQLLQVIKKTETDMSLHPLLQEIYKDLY
Nature of the assay: TR-FRET Assay to Measure Co-R Peptide Recruitment to PPARγ. Format: biochemical. Conditions: Co-R peptide (SMRT-ID2) recruitment; top final concentration 20 μM; read-out: TR-FRET i-Ag; AC50. An outline of the steps:
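His-tagged PPARγ (or controls) was preincubated with compound for 20 minutes at room temperature, then 5 nM anti-His terbium antibody and 200 nM FITC-labeled SMRT-ID2 corepressor peptide (final) were added for a further hour. TR-FRET signal was normalized to percent response using 500 nM T0070907 and DMSO controls.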

The subject of another assay is UM-UC-9 engineered cells. In words: Cell proliferation / short-term viability assay, CellTiter-Glo 144 h. The assay is classed as cell-based, human. Conditions: read-out: CTGlo 144 h UMUC9.5, G150. An outline of the steps: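 UM-UC-9 engineered assay-ready cells seeded at 500 cells/well in high-glucose DMEM/10% FBS, treated from dose-response plates, grown at 37° C, 5% CO2. CellTiter-Glo 2.0 luminescence read on day 7, with a day-0 pretreatment plate as T0 reference and DMSO wells as negative control.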
(In ATP-based viability assays light output follows the ATP content of the culture.)

Like-named read-outs stand apart in the source and are kept apart here. A value given as a limit tells only on which side of the number the result lay.

`COc1cc(-c2cc(C(=O)N3CC[C@@H](C(=O)NCc4cccc(Cl)c4)CC3(C)C)n[nH]2)c(Cl)cn1` (single isomer, unassigned) [Example 255-B]: the AC50 on His6-TEV-PPARγ-(234-505) worked out at 1760 nM. Moreover, the IC50 with UM-UC-9 engineered cells (Homo sapiens, UM-UC-9, 144 h) worked out at 4120 nM.

On to `COc1cc(-c2cc(C(=O)N3CCC(C(=O)NC4CCN(c5ccc(C#N)cn5)C4)CC34CC4)n[nH]2)c(F)cn1` (mixture of isomers) [Example 489, (S)—N—((R)-1-(5-cyanopyridin-2-yl)pyrrolidin-3-yl)-4-(5-(5-fluoro-2-methoxypyridin-4-yl)-1H-pyrazole-3-carbonyl)-4-azaspiro[2.5]octane-7-carboxamide and (S)—N—((S)-1-(5-cyanopyridin-2-yl)pyrrolidin-3-yl)-4-(5-(5-fluoro-2-methoxypyridin-4-yl)-1H-pyrazole-3-carbonyl)-4-azaspiro[2.5]octane-7-carboxamide], for which the AC50 on His6-TEV-PPARγ-(234-505) was found to be 0.7 nM. Moreover, the IC50 in the assay with UM-UC-9 engineered cells came to 5.5 nM.

As for `COc1cc(-c2cc(C(=O)N3CCC(C(=O)NCc4n[nH]c5ccccc45)CC3)n[nH]2)c(Cl)cn1` [Example 201, N-((1H-indazol-3-yl)methyl)-1-(5-(5-chloro-2-methoxypyridin-4-yl)-1H-pyrazole-3-carbonyl)piperidine-4-carboxamide], at His6-TEV-PPARγ-(234-505), the AC50 was found to be 77.5 nM. Further, the IC50 in the assay with UM-UC-9 engineered cells (Homo sapiens, UM-UC-9, 144 h) was found to be 171 nM.

Regarding `CO[C@]1(C(F)(F)F)CC[C@H](NC(=O)[C@H]2CCN(C(=O)c3cc(-c4cc(C)ncn4)[nH]n3)C3(CC3)C2)CC1` (single isomer, unassigned) [Example 309-B], the AC50 at His6-TEV-PPARγ-(234-505) is 49.5 nM. Further, in the assay with UM-UC-9 engineered cells (Homo sapiens, UM-UC-9, 144 h), the IC50 was 302 nM.

With `COc1cc(-c2cc(C(=O)N3[C@@H]4CC[C@H]3C[C@H](C(=O)NCc3ccc5[nH]c(C)c(C)c5c3)C4)n[nH]2)c(F)cn1` [Example 285, (1R,3R,5S)—N-[(2,3-dimethyl-1H-indol-5-yl)methyl]-8-[5-(5-fluoro-2-methoxypyridin-4-yl)-1H-pyrazole-3-carbonyl]-8-azabicyclo[3.2.1]octane-3-carboxamide], at His6-TEV-PPARγ-(234-505), the AC50 came out at 7.9 nM. Further, the IC50 in the assay on UM-UC-9 engineered cells (Homo sapiens, UM-UC-9, 144 h) was 16.3 nM.

Take `COc1cc(-c2cc(C(=O)N3CCC(C(=O)Nc4cccc5[nH]ccc45)CC3)n[nH]2)c(Cl)cn1` [Example 261, 1-(5-(5-chloro-2-methoxypyridin-4-yl)-1H-pyrazole-3-carbonyl)-N-(1H-indol-4-yl)piperidine-4-carboxamide]: at His6-TEV-PPARγ-(234-505), the AC50 worked out at 78.4 nM. Also, the IC50 with UM-UC-9 engineered cells (Homo sapiens, UM-UC-9, 144 h) amounted to 490 nM.

Regarding `CCc1cc(-c2cc(C(=O)N3[C@@H]4CC[C@H]3C[C@H](C(=O)N[C@H]3CC[C@@](O)(C(F)(F)F)CC3)C4)n[nH]2)ccn1` [Example 316, (1R,3s,5S)-8-(5-(2-ethylpyridin-4-yl)-1H-pyrazole-3-carbonyl)-N-((1r,4R)-4-hydroxy-4-(trifluoromethyl)cyclohexyl)-8-azabicyclo[3.2.1]octane-3-carboxamide], the AC50 on His6-TEV-PPARγ-(234-505) came to 67.9 nM. In the assay with UM-UC-9 engineered cells (Homo sapiens, UM-UC-9, 144 h), the IC50 is 3390 nM.

`COc1cc(-c2cc(C(=O)N3CCC(C(=O)NCC4CCn5c(C)nnc5C4)CC34CC4)n[nH]2)c(F)cn1` (single isomer, unassigned) [Example 346-B]: the AC50 at His6-TEV-PPARγ-(234-505) was 1120 nM. Moreover, the IC50 in the assay with UM-UC-9 engineered cells amounted to 2410 nM.

Consider `COc1cc(-c2cc(C(=O)N3CCC(C(=O)NCc4nccc5[nH]ccc45)CC3)n[nH]2)c(Cl)cn1` [Example 254, N-((1H-pyrrolo[3,2-c]pyridin-4-yl)methyl)-1-(5-(5-chloro-2-methoxypyridin-4-yl)-1H-pyrazole-3-carbonyl)piperidine-4-carboxamide], for which the AC50 on His6-TEV-PPARγ-(234-505) worked out at 58.8 nM. Besides, in the assay with UM-UC-9 engineered cells (Homo sapiens, UM-UC-9, 144 h), the IC50 is greater than 2000 nM.

Regarding `COc1cc(-c2cc(C(=O)N3CC[C@H](C(=O)NCC45CC(C(F)(F)F)(CO4)C5)CC34CC4)n[nH]2)c(F)cn1` [Example 365, (S)-4-(5-(5-fluoro-2-methoxypyridin-4-yl)-1H-pyrazole-3-carbonyl)-N-((4-(trifluoromethyl)-2-oxabicyclo[2.1.1]hexan-1-yl)methyl)-4-azaspiro[2.5]octane-7-carboxamide], the AC50 at His6-TEV-PPARγ-(234-505) was 10 nM. In the assay with UM-UC-9 engineered cells (Homo sapiens, UM-UC-9, 144 h), the IC50 was found to be 21.9 nM.

On to `COc1cc(-c2cc(C(=O)N3CCC(C(=O)NC4CCCc5nc(C)ncc54)CC3)n[nH]2)c(Cl)cn1` (racemic) [Example 224, 1-(5-(5-chloro-2-methoxypyridin-4-yl)-1H-pyrazole-3-carbonyl)-N-(2-methyl-5,6,7,8-tetrahydroquinazolin-5-yl)piperidine-4-carboxamide], for which, at His6-TEV-PPARγ-(234-505), the AC50 is 554 nM. Moreover, the IC50 in the assay with UM-UC-9 engineered cells (Homo sapiens, UM-UC-9, 144 h) was 5180 nM.

In the case of `COc1cc(-c2cc(C(=O)N3CCC(C(=O)NCc4cn5cc(Cl)ccc5n4)CC3)n[nH]2)c(Cl)cn1` [Example 219, 1-(5-(5-chloro-2-methoxypyridin-4-yl)-1H-pyrazole-3-carbonyl)-N-((6-chloroimidazo[1,2-a]pyridin-2-yl)methyl)piperidine-4-carboxamide], the AC50 on His6-TEV-PPARγ-(234-505) was 94.5 nM. Also, in the assay on UM-UC-9 engineered cells (Homo sapiens, UM-UC-9, 144 h), the IC50 is 1610 nM.

Regarding `COc1cc(-c2cc(C(=O)N3CCC(F)(C(=O)NCc4cccc(Cl)c4)CC3)n[nH]2)c(Cl)cn1` [Example 174, 1-(5-(5-chloro-2-methoxypyridin-4-yl)-1H-pyrazole-3-carbonyl)-N-(3-chlorobenzyl)-4-fluoropiperidine-4-carboxamide], the AC50 on His6-TEV-PPARγ-(234-505) amounted to 125 nM. In addition, in the assay with UM-UC-9 engineered cells (Homo sapiens, UM-UC-9, 144 h), the IC50 was determined as 407 nM.

For the molecule `COc1cc(-c2cc(C(=O)N3CC[C@H](C(=O)NCC4CCNCC4(F)F)CC34CC4)n[nH]2)c(F)cn1` (single isomer, unassigned) [Example 511-A], the AC50 on His6-TEV-PPARγ-(234-505) was determined as 17.2 nM. Further, the IC50 with UM-UC-9 engineered cells was found to be 63.5 nM.

`COc1cc(-c2cc(C(=O)N3CC[C@H](C(=O)NCc4ccc5[nH]nc(F)c5c4)CC34CC4)n[nH]2)c(F)cn1` (single isomer, unassigned) [Example 288-A]: on His6-TEV-PPARγ-(234-505), the AC50 was 4.4 nM. Besides, the IC50 with UM-UC-9 engineered cells (Homo sapiens, UM-UC-9, 144 h) was 0.9 nM.

With `COc1cc(-c2cc(C(=O)N3CC[C@H](C(=O)NC4CCN(CC5(O)COC5)C4)CC34CC4)n[nH]2)c(F)cn1` (single isomer, unassigned) [Example 454-B], the AC50 on His6-TEV-PPARγ-(234-505) was 100 nM. Moreover, the IC50 in the assay on UM-UC-9 engineered cells is 1880 nM.

Consider `COc1cc(-c2cc(C(=O)N3CCC(C(=O)NCC4CCc5[nH]nc(C)c5C4)CC34CC4)n[nH]2)c(F)cn1` (mixture of isomers) [Example 382, (S)-4-(5-(5-fluoro-2-methoxypyridin-4-yl)-1H-pyrazole-3-carbonyl)-N—(((S)-3-methyl-4,5,6,7-tetrahydro-1H-indazol-5-yl)methyl)-4-azaspiro[2.5]octane-7-carboxamide and (S)-4-(5-(5-fluoro-2-methoxypyridin-4-yl)-1H-pyrazole-3-carbonyl)-N—(((R)-3-methyl-4,5,6,7-tetrahydro-1H-indazol-5-yl)methyl)-4-azaspiro[2.5]octane-7-carboxamide], for which, at His6-TEV-PPARγ-(234-505), the AC50 worked out at 4 nM. Moreover, in the assay with UM-UC-9 engineered cells, the IC50 worked out at 10 nM.

Consider `COc1cc(-c2cc(C(=O)N3CCC(C(=O)NC4CCC(O)(C(F)(F)F)CC4)CC3C(F)(F)F)n[nH]2)c(F)cn1` (single isomer, unassigned) [Example 367-A], for which, at His6-TEV-PPARγ-(234-505), the AC50 was found to be 56.7 nM. Also, in the assay on UM-UC-9 engineered cells, the IC50 was determined as 161 nM.

`COc1cc(-c2cc(C(=O)N3CC[C@H](C(=O)NCc4nc(C)ncc4Cl)CC34CC4)n[nH]2)c(F)cn1` [Example 387, (S)—N-((5-chloro-2-methylpyrimidin-4-yl)methyl)-4-(5-(5-fluoro-2-methoxypyridin-4-yl)-1H-pyrazole-3-carbonyl)-4-azaspiro[2,5]octane-7-carboxamide]: the AC50 on His6-TEV-PPARγ-(234-505) came out at 14.4 nM. Besides, in the assay on UM-UC-9 engineered cells (Homo sapiens, UM-UC-9, 144 h), the IC50 stood at 22.5 nM.

With `COc1cc(-c2cc(C(=O)N3CCC(C(=O)NC4CCOc5ncccc54)CC3)n[nH]2)c(Cl)cn1` (racemic) [Example 236, 1-(5-(5-chloro-2-methoxypyridin-4-yl)-1H-pyrazole-3-carbonyl)-N (3,4-dihydro-2H-pyrano[2,3-b]pyridin-4-yl)piperidine-4-carboxamide], the AC50 at His6-TEV-PPARγ-(234-505) is 466 nM. The IC50 in the assay on UM-UC-9 engineered cells (Homo sapiens, UM-UC-9, 144 h) was 5360 nM.

On to `COc1cc(-c2cc(C(=O)N3CCC(C(=O)NCC4CCn5cncc5C4)CC34CC4)n[nH]2)c(F)cn1` (single isomer, unassigned) [Example 342-A], for which, on His6-TEV-PPARγ-(234-505), the AC50 came to 50.8 nM. Further, in the assay with UM-UC-9 engineered cells, the IC50 worked out at 1210 nM.

On to `COc1cc(-c2cc(C(=O)N3[C@@H]4CC[C@H]3C[C@H](C(=O)N[C@H]3CC[C@@](O)(C(F)(F)F)CC3)C4)n[nH]2)c(F)cn1` (single isomer, unassigned) [Example 170-A], for which the AC50 at His6-TEV-PPARγ-(234-505) turned out to be 4.7 nM. Also, in the assay with UM-UC-9 engineered cells (Homo sapiens, UM-UC-9, 144 h), the IC50 amounted to 11.8 nM.

Consider `COc1cc(-c2cc(C(=O)N3CC[C@H](C(=O)NCC45CCC(O)(CC4)CC5)CC34CC4)n[nH]2)c(F)cn1` (single isomer, unassigned) [Example 313-B], for which the AC50 on His6-TEV-PPARγ-(234-505) is 3.5 nM. In addition, in the assay on UM-UC-9 engineered cells (Homo sapiens, UM-UC-9, 144 h), the IC50 turned out to be 13.9 nM.

As to `COc1cc(-c2cc(C(=O)N3CC[C@H](C(=O)N[C@H]4CC[C@@](OCCN)(C(F)(F)F)CC4)CC34CC4)n[nH]2)c(F)cn1` [Example 350, (S)—N-((1r,4S)-4-(2-aminoethoxy)-4-(trifluoromethyl)cyclohexyl)-4-(5-(5-fluoro-2-methoxypyridin-4-yl)-1H-pyrazole-3-carbonyl)-4-azaspiro[2.5]octane-7-carboxamide], the AC50 at His6-TEV-PPARγ-(234-505) came to 5.3 nM. For the same molecule, the IC50 in the assay on UM-UC-9 engineered cells (Homo sapiens, UM-UC-9, 144 h) is 176 nM.

The record behind these values is patent US12606541B2, “PPARg modulators and methods of use” (Eisai R&D Management Co., Ltd., priority 2020, dated 2026).
